Data taken from the kinase profiling compilation of Christmann-Franck et al. (2016).

Assays:
Assay in all cases: KINOMEscan competition binding
Settings in all cases: compound 10.0 µM
[1] = molecular target: ACVR2A (human) (UniProt P27037)
[2] = molecular target: ADCK4 (human) (UniProt Q96D53)
[3] = molecular target: AURKC (human) (UniProt Q9UQB9)
[4] = molecular target: BTK (human) (UniProt Q06187)
[5] = molecular target: CAMK2D (human) (UniProt Q13557)
[6] = molecular target: CAMK4 (human) (UniProt Q16566)
[7] = molecular target: CAMKK1 (human) (UniProt Q8N5S9)
[8] = molecular target: CDK16 (human) (UniProt Q00536)
[9] = molecular target: CDK5 (human) (UniProt Q00535)
[10] = molecular target: CaMK1 (human) (UniProt Q14012)
[11] = molecular target: DAPK3 (human) (UniProt O43293)
[12] = molecular target: DCLK1 (human) (UniProt O15075)
[13] = molecular target: EPHA5 (human) (UniProt P54756)
[14] = molecular target: EPHA6 (human) (UniProt Q9UF33)
[15] = molecular target: FGFR4 (human) (UniProt P22455)
[16] = molecular target: FLT1 (human) (UniProt P17948)
[17] = molecular target: GSK3B (human) (UniProt P49841)
[18] = molecular target: LATS1 (human) (UniProt O95835)
[19] = molecular target: LTK (human) (UniProt P29376)
[20] = molecular target: MAPK14 (human) (UniProt Q16539)
[21] = molecular target: MST4 (human) (UniProt Q9P289)
[22] = molecular target: MYLK3 (human) (UniProt Q32MK0)
[23] = molecular target: PIM2 (human) (UniProt Q9P1W9)
[24] = molecular target: PRKCD (human) (UniProt Q05655)
[25] = molecular target: PTK2B (human) (UniProt Q14289)
[26] = molecular target: ROCK2 (human) (UniProt O75116)
[27] = molecular target: STK32C (human) (UniProt Q86UX6)

Sequence of FGFR4 (human) (P22455 whole entry, looked up): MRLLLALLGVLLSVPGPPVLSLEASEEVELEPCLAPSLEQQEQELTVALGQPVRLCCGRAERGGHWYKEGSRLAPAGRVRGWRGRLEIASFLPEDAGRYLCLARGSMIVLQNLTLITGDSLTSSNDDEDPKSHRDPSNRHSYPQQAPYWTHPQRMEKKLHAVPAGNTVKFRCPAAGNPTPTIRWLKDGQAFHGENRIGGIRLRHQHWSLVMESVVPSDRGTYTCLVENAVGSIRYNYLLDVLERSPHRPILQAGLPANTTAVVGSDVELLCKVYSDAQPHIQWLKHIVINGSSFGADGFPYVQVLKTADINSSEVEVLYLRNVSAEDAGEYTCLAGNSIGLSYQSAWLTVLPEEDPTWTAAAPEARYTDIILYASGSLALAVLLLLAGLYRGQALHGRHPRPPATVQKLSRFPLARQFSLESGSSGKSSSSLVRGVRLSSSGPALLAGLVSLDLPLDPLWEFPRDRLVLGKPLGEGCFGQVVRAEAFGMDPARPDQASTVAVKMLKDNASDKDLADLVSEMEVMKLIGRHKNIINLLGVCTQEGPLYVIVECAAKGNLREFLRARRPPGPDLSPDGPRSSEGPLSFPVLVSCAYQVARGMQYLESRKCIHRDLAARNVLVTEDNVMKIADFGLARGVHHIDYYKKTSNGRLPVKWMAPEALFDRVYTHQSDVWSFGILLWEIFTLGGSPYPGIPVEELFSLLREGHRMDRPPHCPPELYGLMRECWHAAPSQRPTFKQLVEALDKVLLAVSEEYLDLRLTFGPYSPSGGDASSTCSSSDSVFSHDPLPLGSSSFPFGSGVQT
Sequence of CAMK2D (human) (Q13557 whole entry, looked up): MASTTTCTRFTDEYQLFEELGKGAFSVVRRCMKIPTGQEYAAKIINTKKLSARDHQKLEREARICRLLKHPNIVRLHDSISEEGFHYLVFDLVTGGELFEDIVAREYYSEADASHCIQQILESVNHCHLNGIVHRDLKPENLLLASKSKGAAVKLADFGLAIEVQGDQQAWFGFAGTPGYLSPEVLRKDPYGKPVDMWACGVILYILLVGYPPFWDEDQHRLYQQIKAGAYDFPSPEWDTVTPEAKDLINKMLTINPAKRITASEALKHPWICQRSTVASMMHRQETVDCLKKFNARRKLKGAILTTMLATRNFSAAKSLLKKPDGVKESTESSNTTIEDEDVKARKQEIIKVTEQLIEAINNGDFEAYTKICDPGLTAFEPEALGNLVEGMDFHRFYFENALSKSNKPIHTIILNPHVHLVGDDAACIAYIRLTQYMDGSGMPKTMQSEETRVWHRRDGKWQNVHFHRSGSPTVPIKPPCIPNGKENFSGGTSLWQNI
Sequence of ADCK4 (human) (Q96D53 whole entry, looked up): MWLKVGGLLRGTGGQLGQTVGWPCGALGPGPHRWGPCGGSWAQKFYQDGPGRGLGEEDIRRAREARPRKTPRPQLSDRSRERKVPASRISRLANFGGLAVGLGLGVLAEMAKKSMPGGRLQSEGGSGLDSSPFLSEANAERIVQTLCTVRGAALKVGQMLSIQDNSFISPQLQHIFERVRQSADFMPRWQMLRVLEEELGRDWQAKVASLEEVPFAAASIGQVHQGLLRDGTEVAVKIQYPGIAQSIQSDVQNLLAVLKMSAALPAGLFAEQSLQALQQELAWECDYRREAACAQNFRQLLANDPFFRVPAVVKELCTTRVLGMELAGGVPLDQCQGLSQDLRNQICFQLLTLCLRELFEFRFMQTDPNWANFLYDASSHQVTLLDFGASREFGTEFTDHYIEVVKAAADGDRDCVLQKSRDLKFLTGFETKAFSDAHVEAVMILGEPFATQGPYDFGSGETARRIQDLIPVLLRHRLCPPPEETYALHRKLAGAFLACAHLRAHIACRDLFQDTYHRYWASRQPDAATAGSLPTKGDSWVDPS
Sequence of DAPK3 (human) (O43293 whole entry, looked up): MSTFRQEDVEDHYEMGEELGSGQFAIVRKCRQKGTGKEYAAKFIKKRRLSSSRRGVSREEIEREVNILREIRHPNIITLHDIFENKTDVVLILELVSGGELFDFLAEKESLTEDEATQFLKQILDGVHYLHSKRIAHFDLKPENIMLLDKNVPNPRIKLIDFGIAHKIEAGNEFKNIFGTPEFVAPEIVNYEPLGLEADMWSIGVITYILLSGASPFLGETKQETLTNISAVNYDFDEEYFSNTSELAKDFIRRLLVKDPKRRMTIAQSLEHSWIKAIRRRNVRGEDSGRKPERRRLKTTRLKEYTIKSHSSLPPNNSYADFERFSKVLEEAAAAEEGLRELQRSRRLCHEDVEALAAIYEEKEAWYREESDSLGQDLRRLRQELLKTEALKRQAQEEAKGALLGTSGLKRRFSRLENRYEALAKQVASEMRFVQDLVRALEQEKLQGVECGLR
Sequence of GSK3B (human) (P49841 whole entry, looked up): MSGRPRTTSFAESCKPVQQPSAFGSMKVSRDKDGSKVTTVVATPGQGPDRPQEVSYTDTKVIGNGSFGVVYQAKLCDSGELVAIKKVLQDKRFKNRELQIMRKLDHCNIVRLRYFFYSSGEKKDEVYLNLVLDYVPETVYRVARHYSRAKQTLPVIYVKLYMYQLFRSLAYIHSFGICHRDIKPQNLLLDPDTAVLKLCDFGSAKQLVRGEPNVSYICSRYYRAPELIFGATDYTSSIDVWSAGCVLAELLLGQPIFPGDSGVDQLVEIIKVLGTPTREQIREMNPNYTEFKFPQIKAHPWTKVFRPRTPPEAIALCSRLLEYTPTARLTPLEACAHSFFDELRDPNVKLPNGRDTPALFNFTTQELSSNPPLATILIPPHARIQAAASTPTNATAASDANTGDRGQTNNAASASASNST
Sequence of DCLK1 (human) (O15075 whole entry, looked up): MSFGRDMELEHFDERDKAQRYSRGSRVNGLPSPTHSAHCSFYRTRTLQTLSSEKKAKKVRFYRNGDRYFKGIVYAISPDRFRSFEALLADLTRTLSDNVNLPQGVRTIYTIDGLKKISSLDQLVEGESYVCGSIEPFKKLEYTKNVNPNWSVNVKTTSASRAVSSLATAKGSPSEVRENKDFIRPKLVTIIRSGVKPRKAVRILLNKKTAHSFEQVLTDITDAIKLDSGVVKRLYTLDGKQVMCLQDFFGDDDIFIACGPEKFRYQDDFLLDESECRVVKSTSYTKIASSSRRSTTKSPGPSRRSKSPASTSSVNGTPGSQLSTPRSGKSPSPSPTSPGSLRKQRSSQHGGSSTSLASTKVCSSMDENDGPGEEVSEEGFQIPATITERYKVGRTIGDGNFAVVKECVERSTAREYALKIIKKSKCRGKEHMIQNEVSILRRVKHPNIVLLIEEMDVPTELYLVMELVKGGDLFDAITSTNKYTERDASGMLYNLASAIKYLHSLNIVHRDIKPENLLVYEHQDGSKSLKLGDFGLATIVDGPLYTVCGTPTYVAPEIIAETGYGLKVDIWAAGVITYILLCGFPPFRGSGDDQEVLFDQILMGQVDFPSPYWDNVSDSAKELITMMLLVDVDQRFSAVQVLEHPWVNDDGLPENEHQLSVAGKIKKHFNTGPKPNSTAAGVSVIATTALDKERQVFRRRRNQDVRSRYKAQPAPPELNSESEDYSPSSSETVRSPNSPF
Sequence of LTK (human) (P29376 whole entry, looked up): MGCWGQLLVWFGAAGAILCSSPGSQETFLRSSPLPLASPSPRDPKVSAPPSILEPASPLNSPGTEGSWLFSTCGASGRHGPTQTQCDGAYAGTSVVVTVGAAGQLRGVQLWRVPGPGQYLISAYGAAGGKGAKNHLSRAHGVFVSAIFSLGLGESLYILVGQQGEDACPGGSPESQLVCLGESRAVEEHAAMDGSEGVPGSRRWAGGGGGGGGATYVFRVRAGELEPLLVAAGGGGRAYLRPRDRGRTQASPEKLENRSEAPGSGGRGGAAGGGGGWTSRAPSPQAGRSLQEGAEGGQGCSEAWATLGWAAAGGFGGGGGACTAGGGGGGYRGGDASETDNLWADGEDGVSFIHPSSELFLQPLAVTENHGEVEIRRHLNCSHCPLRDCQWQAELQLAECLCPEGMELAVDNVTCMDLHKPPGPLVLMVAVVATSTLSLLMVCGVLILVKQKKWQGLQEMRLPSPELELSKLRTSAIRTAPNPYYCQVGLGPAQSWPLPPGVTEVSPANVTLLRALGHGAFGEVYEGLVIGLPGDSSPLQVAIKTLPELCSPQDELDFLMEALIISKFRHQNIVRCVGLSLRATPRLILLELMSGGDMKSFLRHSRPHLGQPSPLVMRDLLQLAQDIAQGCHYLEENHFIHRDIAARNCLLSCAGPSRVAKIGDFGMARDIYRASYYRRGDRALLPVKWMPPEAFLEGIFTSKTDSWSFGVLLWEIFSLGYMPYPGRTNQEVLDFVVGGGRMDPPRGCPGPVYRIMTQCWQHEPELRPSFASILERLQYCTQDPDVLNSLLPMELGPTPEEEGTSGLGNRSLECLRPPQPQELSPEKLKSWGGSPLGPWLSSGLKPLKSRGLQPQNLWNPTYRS
Sequence of CDK16 (human) (Q00536 whole entry, looked up): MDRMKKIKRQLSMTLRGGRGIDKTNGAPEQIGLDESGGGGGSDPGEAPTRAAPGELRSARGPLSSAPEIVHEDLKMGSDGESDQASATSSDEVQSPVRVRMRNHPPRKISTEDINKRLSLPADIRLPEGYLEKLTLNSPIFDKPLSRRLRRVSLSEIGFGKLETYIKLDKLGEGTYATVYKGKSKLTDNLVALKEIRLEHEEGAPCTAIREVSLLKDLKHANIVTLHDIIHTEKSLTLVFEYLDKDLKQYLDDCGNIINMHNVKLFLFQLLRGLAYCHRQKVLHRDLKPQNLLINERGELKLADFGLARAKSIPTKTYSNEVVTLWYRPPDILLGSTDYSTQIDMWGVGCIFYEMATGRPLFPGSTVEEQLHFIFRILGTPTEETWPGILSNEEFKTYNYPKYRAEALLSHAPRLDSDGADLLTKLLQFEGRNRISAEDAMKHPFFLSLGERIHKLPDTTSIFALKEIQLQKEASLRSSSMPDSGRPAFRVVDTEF

kinase still bound, per cent of control [1] [%]	kinase still bound, per cent of control [2] [%]	kinase still bound, per cent of control [3] [%]	kinase still bound, per cent of control [4] [%]	kinase still bound, per cent of control [5] [%]	kinase still bound, per cent of control [6] [%]	kinase still bound, per cent of control [7] [%]	kinase still bound, per cent of control [8] [%]	kinase still bound, per cent of control [9] [%]	kinase still bound, per cent of control [10] [%]	kinase still bound, per cent of control [11] [%]	kinase still bound, per cent of control [12] [%]	kinase still bound, per cent of control [13] [%]	kinase still bound, per cent of control [14] [%]	kinase still bound, per cent of control [15] [%]	kinase still bound, per cent of control [16] [%]	kinase still bound, per cent of control [17] [%]	kinase still bound, per cent of control [18] [%]	kinase still bound, per cent of control [19] [%]	kinase still bound, per cent of control [20] [%]	Compound	further results
100	0	100	26	100	13	18	100	100	100	100	18	100	100	100	100	100	100	0.6	100	COc1cc(N2CCC(C(N)=O)CC2)ccc1Nc1nc(N)c(Cl)c(Nc2ccccc2S(=O)(=O)C(C)C)n1	kinase still bound, per cent of control [21]: 100%; kinase still bound, per cent of control [22]: 100%; kinase still bound, per cent of control [23]: 100%; kinase still bound, per cent of control [24]: 100%; kinase still bound, per cent of control [25]: 0.15%; kinase still bound, per cent of control [26]: 100%; kinase still bound, per cent of control [27]: 33%
100	100	100	2.6	100	100	100	100	100	100	100	31	100	11	100	100	100	100	34	100	COc1cc(C)c(Sc2cnc(NC(=O)c3ccc(CNC(C)C(C)C)cc3)s2)cc1C(=O)N1CCN(C(C)=O)CC1 (stereo not given)	kinase still bound, per cent of control [21]: 100%; kinase still bound, per cent of control [22]: 100%; kinase still bound, per cent of control [23]: 100%; kinase still bound, per cent of control [24]: 100%; kinase still bound, per cent of control [25]: 100%; kinase still bound, per cent of control [26]: 100%; kinase still bound, per cent of control [27]: 100%
100	100	100	1.4	100	100	100	100	100	100	100	100	0.85	0.35	0.4	1.2	100	100	2.7	14	COc1ccc(N(C(=O)Oc2cc(C(=O)Nc3cccc(C(F)(F)F)c3)ccc2C)c2ccnc(Nc3ccc(N4CCN(C)CC4)cc3)n2)c(OC)c1	kinase still bound, per cent of control [21]: 100%; kinase still bound, per cent of control [22]: 100%; kinase still bound, per cent of control [23]: 100%; kinase still bound, per cent of control [24]: 100%; kinase still bound, per cent of control [25]: 0.9%; kinase still bound, per cent of control [27]: 100%
